These results are taken from patent publication US20140199292A1, “COMPOSITIONS AND METHODS FOR INHIBITING TUMOR DEVELOPMENT CAUSED BY CHEMOTHERAPY INDUCED SENESCENCE” (INSERM (Institut National de la Sante et de la Recherche …, priority 2011, published 2014).

One assay has as its system NF-kB. As to the kind of experiment: NF-kB luciferase reporter assay in 501mel cells. Format: cell-based, human. As to the method: 501mel melanoma cells were transiently transfected as previously described using the lipofectamine reagent (Invitrogen) (Bertolotto et al. 1998). Briefly, cells were transiently transfected with 0.3 μg of NF-kB reporter construct and 0.05 μg pCMVbGal to control the variability in transfection efficiency. The transfection medium was changed 6 hours later and when indicated, cells were transfected as described above with 50 nM of siC or siMi and/or siIKK2 or were exposed to drugs. Cells were assayed for luciferase and b-galactosidase activities 48 hours later. Transfections were repeated at least three times.

Another assay deals with CCL2. As to the kind of experiment: CCL2 ELISA in supernatant of MCF7 cells. Type of assay: cell-based, human. The arrangement: CCL2 secretion of MCF7 cells: dose or concentration left out as unconfirmed. Particulars: for effect on CCL2 secretion of H2O2-treated senescent MCF7 cells: sulfasalazine 500 μM, 3-AB 20 mM. The text has this: CCL2 level in the supernatant of the different melanoma cell lines, in that of MCF7 cells or in that of 501mel cells transfected with siC or siMi for 96 hrs, in presence or absence of drugs, was quantified by ELISA (R&D systems). Results from two independent experiments were normalized to cell number and expressed as ng/ml/10^6 cells.
In general terms: An ELISA detects its analyte on a solid surface through an enzyme-linked reagent.

Assay [1] deals with p65/RELA subunit of NF-kB. As to the kind of experiment: Immunofluorescence of p65/RelA localization in melanoma cells. Format: cell-based, human. The note with it: for effect on NF-kB nuclear relocation by MITF-silencing: 3-AB 20 mM, sulfasalazine 500 μM. The procedure:
Melanoma cells seeded on glass coverslips in 12-well dishes, were transfected with siC or siMi. When indicated cells were exposed to TNFa (10 ng/ml). Ninety-six hours later, cells were fixed and permeabilized as previously described (Khaled et al. 2003) before being exposed to anti-MITF (Abcam), anti-p65/RelA (Santa Cruz biotechnology), 53BP1 (Bethyl Laboratories) and E-cadherin (BD Transduction Laboratories) antibodies. Cells were washed thrice with PBS, and then incubated for 1 hour with 1:1000 dilution anti-mouse or anti-rabbit Alexa Fluor 488 or Alexa Fluor 594 labeled secondary antibody (Invitrogen, San Diego, Calif., USA) and mounted using Gel/Mount (Biomeda corp., Foster City Calif.). Immunofluorescences were examined and photographed with a Zeiss Axiophot microscope equipped with epifluorescence illumination.

For the next assay, the system named is IKK2, p53, PARP-1. The assay can be described thus: Western blot of 501mel cell extracts (IKK2, p53, poly-(ADP rybosyl)ation). Type of assay: cell-based, human. The procedure: Western blots were carried out as previously described (Hilmi et al. 2008). Briefly, cell lysates (30 μg) were separated by SDS-PAGE, transferred on to a PVDF membrane and then exposed to the appropriate antibodies, anti-MITF (Abcam), anti-ERK2 (D-2 Santa Cruz biotechnology), anti-p53 (DO-1, Santa Cruz biotechnology), anti-PARP (Santa Cruz biotechnology), anti-IKK2 and anti-PARP (Cell Signaling Technology Inc.). Horseradish peroxidase-conjugated anti-rabbit or anti-mouse antibodies were from Dakopatts (Glostrup, Denmark). Proteins were visualized with the ECL system (Amersham). The western blots shown are representative of at least 3 independent experiments.
(In general: In western blotting, separated proteins are transferred to a membrane and probed.)

The next assay has as its system MITF. The note with it: Mhaidat et al. 2007; Liu et al. 2009; cited from earlier work.
A further assay relates to MCF7 cells. The assay can be described thus: Invasion assay, Boyden chamber, naive MCF7 cells. Type of assay: cell-based, human. As to the method: (a) Conditioned media of control or senescent MCF7 (H2O2 treated) were added to the lower compartment of Boyden chambers to assess their chemotactic activity. Cells that had migrated to the underside of the upper compartment were stained 24 hrs later with crystal violet and the number of nuclei was counted using NIH-imageJ analysis software. Values represent mean+SD of three independent experiments. (b) ELISA test of CCL2 level in the conditioned media of control MCF7 or MCF7 incubated with H2O2 ([…]) and when indicated with sulfasalazine (500 μM) or 3-AB (20 mM). Data are represented as mean+SD.
(§1) Cell invasion was assessed using a modified Boyden chamber assay with […] pore filter inserts for 24-well plates (BD Bioscience). 501mel cells were seeded on the upper chamber of matrigel-coated trans-well and chemoattractants (conditioned media or recombinant molecules) placed into the lower chamber. Twenty-four hours later, cells adherent to the underside of the filters were fixed with 4% PFA, stained with 0.4% crystal violet and five random fields at ×20 magnification were counted. Results represent the average of triplicate samples from three independent experiments.

Assay [2] concerns 501mel human melanoma cells. The assay can be described thus: Senescence of 501mel melanoma cells (morphology, SA-b-Gal staining at pH6). Type of assay: cell-based. The note with it: flattened and enlarged morphology, SA-b-Gal reactivity at pH6. The procedure: (§2) 501mel human melanoma cells and MCF7 human breast cancer cells were grown in DMEM supplemented with 7% FBS at 37° C. in a humidified atmosphere containing 5% CO2. Lipofectamine™ RNAiMAX and opti-MEM medium were purchased from Invitrogen (San Diego, Calif., USA). TNFa and recombinant human CCL2 were from PeproTech Inc (Rocky Hill, N.J.), sulfasalazine and 3-AB from Sigma Chem. Co (St Louis, Mo.), mouse anti-CCL2 from R&D Systems and KU55933 from Calbiochem. The senescence b-galactosidase staining kit from Cell Signaling Technology (Beverly, Mass., USA) was used to histochemically detect b-galactosidase activity at pH6 as previously reported (Giuliano et al. 2010a). The percentage of means and standard deviations were derived from counting 100 cells in duplicate plates after 96 hrs.

The subject of assay [3] is MCF7 human breast cancer cells. The assay can be described thus: Senescence, DNA damage and NF-kB activation of MCF7 cells. Format: cell-based. The procedure: as §2
We next wondered if a similar PARP-1 and NF-kB-assiocated secretome (PNAS) could be observed in non-melanoma cells that have entered a program of senescence. […] Although CCL2 was not expected to be the major component of MCF7's secretome, CCL2 measurement was used as a readout of its formation. […] Together, our result reveal that PNAS during cellular senescence is a common mechanism that relies on activation of the DNA damages/NF-kB signaling cascade in both melanoma and non-melanoma cell lines.

For the next assay, the system named is 501mel cells. As to the kind of experiment: Invasion assay, matrigel-coated modified Boyden chamber, naive 501mel cells. Format: cell-based, human. The note with it: recombinant CCL2 100 ng/ml as chemoattractant. As to the method: as §1
[4] abbreviates: 3-AB 20 mM, sulfasalazine 500 μM.

For `NC(=O)c1cccc(N)c1` [3-AB, 3-aminobenzamide], the “effect on NF-kB transcriptional activity stimulated by oxidative stress and chemotherapeutic drugs” value in the assay on NF-kB (3-AB 20 mM, FMT 40 mM, TMZ 900 nM, H2O2 100 mM) is recorded as “prevented”. The “effect on stimulation of NF-kB transcriptional activity by MITF-silencing” value with NF-kB (setting [4]) is listed as “no longer able”. In addition, in the assay with CCL2, the “effect on CCL2 secretion of H2O2-treated senescent MCF7 cells” value is on record as “impaired”. The “effect on NF-kB nuclear relocation by MITF-silencing” value in assay [1] is recorded as “no longer able to relocate NF-kB to the nucleus”. In the assay with IKK2, p53, PARP-1 (western blot), the “effect on p53 up-regulation mediated by MITF silencing” value is given as “almost completely abrogated”.
With `OO` [H2O2], the MITF expression result in the assay on MITF is “decreased the expression of MITF”. The “invasion of naive MCF7 cells toward supernatant of treated (senescent) MCF7” value with MCF7 cells is given as “enhanced the invasion of naïve MCF7 cells”. In the assay on CCL2 (H2O2), the “CCL2 secretion of MCF7 cells” value is “resulted in CCL2 secretion”. The “poly-(ADP rybosyl)ation in melanoma cells” value with IKK2, p53, PARP-1 is on record as “increased poly-(ADP rybosyl)ation”. In addition, the “senescence of melanoma cells” value in assay [2] is recorded as “underwent premature senescence”. In assay [3], the “DNA damage in MCF7 cells (gH2AX labeling)” value was “DNA damage induction” and the “NF-kB activity in MCF7 cells (nuclear localization of p65/RELA)” value is recorded as “stimulation of NF-kB activity”. Also, the “senescence of MCF7 cells” value in assay [3] (morphological changes, SA-b-galactosidase, p53 and p21) is listed as “underwent senescence”.
On to `CCOP(=O)(OCC)C(C)NC(=O)N(CCCl)N=O` (centres unmarked) [fotemustine], for which the “senescence of melanoma cells” value in assay [2] is “extended these findings”.
For the compound `O=C(O)c1cc(/N=N/c2ccc(S(=O)(=O)Nc3ccccn3)cc2)ccc1O` [sulfasalazine], in the assay with NF-kB (setting [4]), the “effect on stimulation of NF-kB transcriptional activity by MITF-silencing” value is recorded as “no longer able”. The “effect on activation of the NF-kB reporter gene by siMITF or TNFa” value with NF-kB (sulfasalazine 500 μM, siIKK2 co-knockdown) is given as “prevented activation of the NF-kB reporter gene”. For the same compound, the “effect on CCL2 secretion of H2O2-treated senescent MCF7 cells” value in the assay with CCL2 is recorded as “impaired”. In [1], the “effect on NF-kB nuclear relocation by MITF-silencing” value is on record as “no longer able to relocate NF-kB to the nucleus”. In addition, in the assay on IKK2, p53, PARP-1 (western blot), the “effect on IKK2 up-regulation mediated by MITF silencing” value is listed as “abrogated” and the “effect on p53 up-regulation mediated by MITF silencing” value is reported as “modestly affected”.
Turning to “CCL2: recombinant human CCL2 from PeproTech, chemokine”, the “invasive capability of naive 501mel cells” value with 501mel cells is given as “stimulated the invasive capability”.
Regarding TNFa, in the assay with NF-kB (501mel cells, TNFα 10 ng/ml, FMT 40 mM, TMZ 900 nM, H2O2 100 mM), the “NF-kB transcriptional activity (luciferase reporter)” value was “up-regulated”. In [1] (TNFa 10 ng/ml), the “cellular localization of p65/RELA” value is recorded as “p65 relocalized to the nucleus”.
